# Values joined by “and” are separate entries in the source; they are usually repeats but may differ in a detail not shown here. Equal entries are not always repeated. Where two headings read alike, the source gives them in different places.
# What was measured:
# MCF7 (Breast Cancer) = experiment: NCI60 screen (SRB); type: cell-based, human; settings: 48 h; for growth percent: one dose 10 µM
# M14 (Melanoma) = experiment: NCI60 screen (SRB); type: cell-based, human; settings: 48 h; for growth percent: one dose 10 µM
# PC-3 (Prostate Cancer) = experiment: NCI60 screen (SRB); type: cell-based, human; settings: 48 h; for growth percent: one dose 10 µM
# [1] = tested on: HOP-62 (Non-Small Cell Lung Cancer); experiment: NCI60 screen (SRB); type: cell-based, human; settings: 48 h; for growth percent: one dose 10 µM
# BT-549 (Breast Cancer) = experiment: NCI60 screen (SRB); type: cell-based, human; settings: for GI50: five-dose; for growth percent: one dose 10 µM
# LOX IMVI (Melanoma) = experiment: NCI60 screen (SRB); type: cell-based, human; settings: 48 h; for growth percent: one dose 10 µM
# OVCAR-5 (Ovarian Cancer) = experiment: NCI60 screen (SRB); type: cell-based, human; settings: 48 h; for growth percent: one dose 10 µM
# UACC-257 (Melanoma) = experiment: NCI60 screen (SRB); type: cell-based, human; settings: 48 h; for growth percent: one dose 10 µM
# [2] = tested on: NCI-H23 (Non-Small Cell Lung Cancer); experiment: NCI60 screen (SRB); type: cell-based, human; settings: 48 h; for growth percent: one dose 10 µM
# HCT-15 (Colon Cancer) = experiment: NCI60 screen (SRB); type: cell-based, human; settings: 48 h; for growth percent: one dose 10 µM
# OVCAR-4 (Ovarian Cancer) = experiment: NCI60 screen (SRB); type: cell-based, human; settings: 48 h; for growth percent: one dose 10 µM
# CCRF-CEM (Leukemia) = experiment: NCI60 screen (SRB); type: cell-based, human; settings: 48 h; for growth percent: one dose 10 µM
# DU-145 (Prostate Cancer) = experiment: NCI60 screen (SRB); type: cell-based, human; settings: 48 h; for growth percent: one dose 10 µM
# [3] = tested on: MCF-7 breast cancer cells; experiment: alamarBlue cell viability assay; type: cell-based; settings: Homo sapiens, MCF7, MCF-7
# Description: Figure 5 Preliminary cell viability data for Series 1: (A) compounds 22a–22g and chalcone 20b and Series 2: (B) compounds 23a–e and chalcone 20b in MCF-7 breast cancer cells. Cell proliferation of MCF-7 cells was determined with an alamarBlue assay (seeding density 2.5 × 10^4 cells/mL per well for 96-well plates). Compound concentrations of either 1 or 0.1 μM for 72 h were used to treat the cells (in triplicate) with control wells containing vehicle ethanol (1% v/v). The mean value ± SEM for three independent experiments is shown. The positive controls used are CA-4 and phenstatin (1.0 μM and 0.1 μM). Statistical analysis was performed using One-way ANOVA with the Sidak multiple comparison test (***, p < 0.001).
# HL-60 cells were suspension cells and the seeding density for the viability assay was 25,000 cells/mL. MCF-7 cells (adherent) were cultured in Minimum Essential Media (MEM) with GlutaMAX™-I, supplemented with 1% (v/v) non-essential amino acids, 10% (v/v) fetal bovine serum (FBS), purchased from BD Biosciences (Edmund Halley Road, Oxford, UK), and 1% (v/v) penicillin/streptomycin 5000 U/mL. The MCF-7 cells used in the screening of the compounds during these experiments were mycoplasma-free. The seeding density of MCF-7 in the viability assay was 25,000 cells/mL and 50,000 cells/mL in the FACS assay. Normal breast cells (MCF-10A) (adherent) were cultured in Dulbecco’s Modified Eagle Medium: Nutrient Mixture F-12 (DMEM/F12; Gibco) supplemented with 5% horse serum (Invitrogen, Waltham, MA, USA), 20 ng/mL epidermal growth factor (Merck Millipore, Burlington, MA, USA), 0.5 μg/mL hydrocortisone (Sigma, Kanagawa, Japan), 100 ng/mL cholera toxin (Sigma), 10 μg/mL insulin (Sigma), and penicillin/streptomycin 5000 U/mL (1%) (Gibco, Waltham, MA, USA). […] MDA-MB-231 cells were cultured in Dulbecco’s Modified Eagle Medium, which was supplemented with 10% (v/v) fetal bovine serum (FBS) and 1% (v/v) penicillin/streptomycin 5000 U/mL. When not in use, all cells were kept in liquid nitrogen and frozen in a freezing media made of 90% FBS and 10% DMSO. All cells were grown in an atmosphere of 5% CO2/95% air in T75 culture flasks. The media was changed every 2–3 days and media was always prewarmed to 37 °C. All were sub-cultured every 3–4 days by trypsinization using TrypLE™ Express enzyme when confluence was reached to allow growth, prevent excessive cell death, and minimize the risk of infections derived by over-confluence. For the cell viability assay, the number of cells per milliliter was 25,000 cells/mL while the FACS assay utilized 50,000 cells/mL. Cells were maintained at 37 °C in 5% CO2 in a humidified incubator.
# The biochemical assays were performed in triplicate and on at least three independent occasions to facilitate the determination of mean values. For the viability assay, cells were grown until 80% confluent. Adherent cells such as MCF-7, MDA-MB-231, and MCF-10A were trypsinized to detach them from the flask, counted as previously described, and seeded in 96 well plates with a seeding density of 25,000 cells /mL (200 µL of suspension in each well so that the final number of cells per well was 5000) and 1 × 10^4 cells/well seeding density for suspension HL-60 cells. Adherent cells were incubated for 24 h after being seeded in the 96 well plate and treated on the following day, while suspension cells were treated on the same day of the seeding. In both cases, the incubation time after the treatment with the drug was 72 h. After 68 h incubation, the AlamarBlue was added (20 µL in each well) and the incubation time was completed. After 72 h, the change in color was measured by spectrofluorimetry at an excitation wavelength of 544 nm and emission wavelength of 590 nm. AlamarBlue is a cell viability indicator containing a compound called resazurin. AlamarBlue is water soluble, stable in culture media, non-toxic, and is permeable through the cell membrane. […]
# ACHN (Renal Cancer) = experiment: NCI60 screen (SRB); type: cell-based, human; settings: 48 h; for growth percent: one dose 10 µM
# A498 (Renal Cancer) = experiment: NCI60 screen (SRB); type: cell-based, human; settings: 48 h; for growth percent: one dose 10 µM
# [4] = tested on: NCI-H226 (Non-Small Cell Lung Cancer); experiment: NCI60 screen (SRB); type: cell-based, human; settings: 48 h; for growth percent: one dose 10 µM
# RPMI-8226 (Leukemia) = experiment: NCI60 screen (SRB); type: cell-based, human; settings: 48 h; for growth percent: one dose 10 µM
# 786-0 (Renal Cancer) = experiment: NCI60 screen (SRB); type: cell-based, human; settings: 48 h; for growth percent: one dose 10 µM
# K-562 (Leukemia) = experiment: NCI60 screen (SRB); type: cell-based, human; settings: 48 h; for growth percent: one dose 10 µM
# [5] = Homo sapiens, five-dose, read-out: IC50 (cell marked * in GI50 column) (converted)
smiles,measurement,setting,value
"COc1ccc(/C=C/C(c2cc(OC)c(OC)c(OC)c2)n2cncn2)cc1O (centres unmarked) [Compound 22b, (E)-5-(3-(1H-1,2,4-Triazol-1-yl)-3-(3,4,5-trimethoxyphenyl)prop-1-en-1-yl)-2-methoxyphenol]",GI50,"MCF7 (Breast Cancer); Homo sapiens, five-dose",33 nM
same,growth percent,MCF7 (Breast Cancer),21.2% and 21.22%
same,GI50,"M14 (Melanoma); Homo sapiens, five-dose",28.7 nM
same,growth percent,M14 (Melanoma),−12.29%
same,GI50,"PC-3 (Prostate Cancer); Homo sapiens, five-dose",36 nM
same,growth percent,PC-3 (Prostate Cancer),23.47%
same,IC50,[1]; [5],30200 nM
same,growth percent,[1],22.52%
same,GI50,"BT-549 (Breast Cancer); Homo sapiens, BT-549, 48 h",71 nM
same,GI50,BT-549 (Breast Cancer); 48 h,71.2 nM
same,growth percent,BT-549 (Breast Cancer); 48 h,36.59%
same,GI50,"LOX IMVI (Melanoma); Homo sapiens, five-dose",51.1 nM
same,growth percent,LOX IMVI (Melanoma),50.87%
same,GI50,"OVCAR-5 (Ovarian Cancer); Homo sapiens, five-dose",4480 nM
same,growth percent,OVCAR-5 (Ovarian Cancer),86.55%
same,GI50,"UACC-257 (Melanoma); Homo sapiens, five-dose",> 100000 nM
same,growth percent,UACC-257 (Melanoma),55.61%
same,GI50,"[2]; Homo sapiens, five-dose",3470 nM
same,growth percent,[2],41.50%
same,GI50,"HCT-15 (Colon Cancer); Homo sapiens, five-dose",50.8 nM
same,growth percent,HCT-15 (Colon Cancer),16.53%
same,GI50,"OVCAR-4 (Ovarian Cancer); Homo sapiens, five-dose",7050 nM
same,growth percent,OVCAR-4 (Ovarian Cancer),83.51%
same,GI50,"CCRF-CEM (Leukemia); Homo sapiens, five-dose",32 nM
same,growth percent,CCRF-CEM (Leukemia),6.31%
same,IC50,DU-145 (Prostate Cancer); [5],6610 nM
same,growth percent,DU-145 (Prostate Cancer),21.00%
same,IC50,[3],390 nM
same,viability at 0.5 µM,"[3]; 0.5 μM, 72 h, Figure 9C",70%
same,viability at 1 µM,"[3]; 72 h, Figure 9C, read-out: cell viability",30%
same,viability at 1 µM,"[3]; 72 h, read-out: viable cells",40%
same,viability at 10 µM,"[3]; 10 μM, 72 h, Figure 9C",20%
same,IC50,[3]; 72 h,385 ± 120 nM
same,GI50,"ACHN (Renal Cancer); Homo sapiens, five-dose",57.9 nM
same,growth percent,ACHN (Renal Cancer),63.11%
same,GI50,"A498 (Renal Cancer); Homo sapiens, five-dose",3130 nM
same,growth percent,A498 (Renal Cancer),19.81%
same,GI50,"[4]; Homo sapiens, five-dose",5930 nM
same,growth percent,[4],62.21%
same,GI50,"RPMI-8226 (Leukemia); Homo sapiens, five-dose",37 nM
same,growth percent,RPMI-8226 (Leukemia),19.89%
same,IC50,786-0 (Renal Cancer); [5],8910 nM
same,growth percent,786-0 (Renal Cancer),23.33%
same,GI50,"K-562 (Leukemia); Homo sapiens, K562, five-dose",32 nM
same,growth percent,K-562 (Leukemia),8.05%
"COc1ccc(/C=C/C(c2cc(OC)c(OC)c(OC)c2)n2cncn2)cc1 (centres unmarked) [Compound 22a, (E)-1-(3-(4-Methoxyphenyl)-1-(3,4,5-trimethoxyphenyl)allyl)-1H-1,2,4-triazole]",growth percent,MCF7 (Breast Cancer),22.5% and 22.48%
same,growth percent,M14 (Melanoma),17.86%
same,growth percent,PC-3 (Prostate Cancer),31.20%
same,growth percent,[1],41.84%
same,growth percent,BT-549 (Breast Cancer); 48 h,45.45%
same,growth percent,LOX IMVI (Melanoma),49.98%
same,growth percent,OVCAR-5 (Ovarian Cancer),90.16%
same,growth percent,UACC-257 (Melanoma),46.44%
same,growth percent,[2],67.01%
same,growth percent,HCT-15 (Colon Cancer),31.14%
same,growth percent,OVCAR-4 (Ovarian Cancer),96.82%
same,growth percent,CCRF-CEM (Leukemia),35.07%
same,growth percent,DU-145 (Prostate Cancer),61.25%
same,viability at 1 µM,"[3]; 72 h, read-out: viable cells",60%
same,growth percent,ACHN (Renal Cancer),57.45%
same,growth percent,A498 (Renal Cancer),36.38%
same,growth percent,[4],75.97%
same,growth percent,RPMI-8226 (Leukemia),50.84%
same,growth percent,786-0 (Renal Cancer),39.65%
same,growth percent,K-562 (Leukemia),17.72%
"COc1cc(/C=C/C(/C=C/c2cc(OC)c(OC)c(OC)c2)n2ccnc2)cc(OC)c1OC [Compound 30, 1-((1E,4E)-1,5-bis(3,4,5-trimethoxyphenyl)penta-1,4-dien-3-yl)-1H-imidazole]",growth percent,MCF7 (Breast Cancer),57.42%
same,growth percent,M14 (Melanoma),82.03%
same,growth percent,PC-3 (Prostate Cancer),58.09%
same,growth percent,[1],84.91%
same,growth percent,BT-549 (Breast Cancer); 48 h,83.42%
same,growth percent,LOX IMVI (Melanoma),85.14%
same,growth percent,OVCAR-5 (Ovarian Cancer),129.83%
same,growth percent,UACC-257 (Melanoma),75.61%
same,growth percent,[2],81.16%
same,growth percent,HCT-15 (Colon Cancer),77.23%
same,growth percent,OVCAR-4 (Ovarian Cancer),92.69%
same,growth percent,CCRF-CEM (Leukemia),65.10%
same,growth percent,DU-145 (Prostate Cancer),100.17%
same,viability at 1 µM,"[3]; 72 h, read-out: viable cells",77%
same,growth percent,ACHN (Renal Cancer),99.92%
same,growth percent,A498 (Renal Cancer),104.55%
same,growth percent,[4],84.81%
same,growth percent,RPMI-8226 (Leukemia),60.48%
same,growth percent,786-0 (Renal Cancer),95.20%
same,growth percent,K-562 (Leukemia),61.41%
"COc1ccc(C2CC(n3ccnc3)c3cc(OC)c(OC)c(OC)c32)cc1O (centres unmarked) [Compound 27a, 5-(3-(1H-Imidazol-1-yl)-5,6,7-trimethoxy-2,3-dihydro-1H-inden-1-yl)-2-methoxyphenol]",growth percent,MCF7 (Breast Cancer),44.8% and 44.77%
same,growth percent,M14 (Melanoma),73.08%
same,growth percent,PC-3 (Prostate Cancer),60.69%
same,growth percent,[1],80.77%
same,growth percent,BT-549 (Breast Cancer); 48 h,90.36%
same,growth percent,LOX IMVI (Melanoma),86.38%
same,growth percent,OVCAR-5 (Ovarian Cancer),106.81%
same,growth percent,UACC-257 (Melanoma),58.46%
same,growth percent,[2],91.50%
same,growth percent,HCT-15 (Colon Cancer),59.92%
same,growth percent,OVCAR-4 (Ovarian Cancer),100.34%
same,growth percent,CCRF-CEM (Leukemia),90.92%
same,growth percent,DU-145 (Prostate Cancer),102.37%
same,growth percent,ACHN (Renal Cancer),86.36%
same,growth percent,A498 (Renal Cancer),88.34%
same,growth percent,[4],97.37%
same,growth percent,RPMI-8226 (Leukemia),94.65%
same,growth percent,786-0 (Renal Cancer),91.67%
same,growth percent,K-562 (Leukemia),44.70%

# Reference: PMC11769294, “(E)-1-(3-(3-Hydroxy-4-Methoxyphenyl)-1-(3,4,5-Trimethoxyphenyl)allyl)-1H-1,2,4-Triazole and Related Compounds: Their Synthesis and Biological Evaluation as Novel Antimitotic Agents Targeting Breast Cancer” (Pharmaceuticals, 2025)
